Columns and labels:
[1] = Metabolite identification after incubation in human hepatocytes; type: in vitro ADME; settings: 10 μM, 37° C., 2 hours
Procedure: (§1) Assay Example 4: Analysis and Identification of Metabolites of the Compound in Human Liver Microsome and Hepatocyte Incubation System
(§2) By using high-resolution mass spectrometry, the metabolite produced by the incubation of compound 32B in human liver microsomes and human hepatocytes was found, and identified for its structure; the percentage content of compound 32B and its metabolite was calculated by using LC-UV; and the possible biotransformation pathway of compound 32B in human liver microsomes and human hepatocytes in vitro was studied.
Compound 32B (10 μM) was incubated in mouse, rat, canine, monkey, and human hepatocyte systems at 37° C. for 120 min. 7-ethoxycoumarin (7-EC, 30 μM) was used as a positive control to evaluate the enzymatic metabolic activity in the hepatocyte incubation system. The incubated sample was analyzed by LC-UV-MS. The structure of each metabolite was resolved and identified based on its primary and secondary mass spectrometry signals and/or comparison with a standard. The relative percentage of the UV-integrated peak area of each metabolite was given through data collected from the sample by HPLC-UV-MS, and the possible structure of the metabolite and its possible metabolic pathway in various genera of hepatocytes were inferred from the mass spectrometry information of the metabolite.

[2] = target: T1, S1P1 (Homo sapiens, UniProt P21453); assay: In vitro agonistic activity on S1P1, U2OS-EDG1 cells, LiveBLAzer FRET B/G; type: cell-based
T1 construct: host or cells: U2OS
T1 sequence (P21453 whole entry): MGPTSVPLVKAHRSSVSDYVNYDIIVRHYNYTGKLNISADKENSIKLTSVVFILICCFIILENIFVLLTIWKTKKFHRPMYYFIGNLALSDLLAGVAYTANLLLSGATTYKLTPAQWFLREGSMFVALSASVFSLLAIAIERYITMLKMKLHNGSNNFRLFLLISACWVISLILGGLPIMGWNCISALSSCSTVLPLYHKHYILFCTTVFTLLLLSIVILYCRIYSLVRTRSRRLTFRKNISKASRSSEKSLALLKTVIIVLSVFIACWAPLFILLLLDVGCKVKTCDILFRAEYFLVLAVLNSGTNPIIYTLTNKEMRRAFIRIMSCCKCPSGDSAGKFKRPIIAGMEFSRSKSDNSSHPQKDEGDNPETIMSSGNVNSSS
Procedure: Assay Example 1: In Vitro Evaluation of the Agonistic Activity of the Compounds of the Present Disclosure on S1P1
Object of the assay: To detect the agonistic activity of compounds on S1P1
• 1. Cells U2OS-EDG1 (Batch No.: Invitrogen-K1520) were taken out of a liquid nitrogen tank and placed in a 37° C. water bath to thaw quickly; • 2. The cell suspension was aspirated into a 15 ml centrifuge tube, resuspended in 5 ml of preheated medium, and centrifuged at 1000 rpm for 5 min; • 3. The supernatant was discarded. The cells were resuspended in 10 ml of medium, transferred into a T75 culture flask, and cultivated in an incubator with 5% CO2 at 37° C. II. Agonist Assay • 1. The compounds were diluted to working concentrations, and serially diluted 3-fold by Echo 555 (manufacturer: Labcyte) to obtain 10 concentrations; 200 nL of each concentration of the compound was transferred to a cell plate and centrifuged at 1000 rpm for 15 seconds; • 2. Culture medium was aspirated from the culture flask; 4 mL of Dulbecco's phosphate buffer (DPBS, supplier: Coring, item No.: 21-031-CVR, batch No.: 03318006) was added, and the residual serum was washed away; 2 mL of trypsin was added; The mixture was incubated in an incubator at 37° C. for 2 min, and the cells were digested; 10 mL of seeding medium was added to resuspend the cells; 0.6 mL of cell suspension was taken out and counted; • 3. The density of cells was adjusted to 1.88E+05 cells/mL using seeding medium, with 40 μL per well (7500\well); 40 μL of FreeStyle™ Expression medium was added around the cell plate; The plate was let stand at room temperature for 15 min and incubated at 37° C. with 5% CO2 for 20 hours. III. Signal Detection • 1. LiveBLAzer™-FRET B/G Substrate (CCF4-AM) assay reagents were formulated according to the instructions; • 2. 8 μL of 6×Substrate Mixture was added to each well of the cell plate; The plate was centrifuged at 1000 rpm for 15 seconds, covered with a film, and incubated at 23° C. for 2 hours; The cell plate was subjected to Envision […] detection. IV. Data Analysis • 1. The raw data were converted into % Effect by using an equation, and the EC50 value can be obtained by curve fitting with four parameters [“log(agonist) vs. response—Variable slope” model in GraphPad Prism]; • 2. Calculation formula: Ratio=(460 nm−blank)/(535 nm−blank) % Effect=(SampleRatio−Ave LCRatio)/(Ave HCRatio−Ave LCRatio)×100%

[3] = target: T2, S1P2 (Homo sapiens, UniProt O95136); assay: In vitro agonistic activity on S1P2, PathHunter cell line; type: cell-based; settings: PathHunter cells
T2 construct: expressed in transfected cells
T2 sequence (O95136 whole entry): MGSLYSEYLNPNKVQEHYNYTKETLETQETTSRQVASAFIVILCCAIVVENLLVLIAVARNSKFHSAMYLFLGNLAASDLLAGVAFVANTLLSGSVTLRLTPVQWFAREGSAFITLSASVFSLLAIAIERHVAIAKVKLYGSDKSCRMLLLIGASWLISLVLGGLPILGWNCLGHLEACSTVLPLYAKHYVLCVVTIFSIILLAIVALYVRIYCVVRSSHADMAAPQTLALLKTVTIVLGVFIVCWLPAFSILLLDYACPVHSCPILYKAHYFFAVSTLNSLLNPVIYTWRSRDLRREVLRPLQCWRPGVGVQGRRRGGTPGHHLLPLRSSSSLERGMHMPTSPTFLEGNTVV
Procedure: Assay Example 5: In Vitro Evaluation of the Agonistic Activity of the Compound of the Present Disclosure on S1P2, S1P3 and S1P4
Object of the assay: To detect the agonistic activity of the compound on S1P2, S1P3, and S1P4
• 1. PathHunter cell line was expanded from freezer according to standard procedures. • 2. Cells were seeded into a white 384-well microplate in a total volume of 20 μL and incubated at 37° C. for an appropriate time prior to testing. II. Agonist Assay • 1. For the agonist assay, cells were incubated with a sample to induce a response. • 2. Stock solution was stored in a buffer at a concentration of 5 times the concentration to be tested. • 3. 5 μl of the stock solution sample at a concentration of 5 times the concentration to be tested was added to the cells and incubated at 37° C. or room temperature for 90-180 min with a vehicle concentration of 1%. III. Signal Detection • 1. […] Chemiluminescent Signal detection was performed using a PerkinElmer Envision™ instrument, and the microplate was read after signal generation. […] The activity of the compound was analyzed using the CBIS data analysis suite (ChemInnovation, CA). • 2. For the agonist mode assay, the percent activity was calculated using the following formula: % Activity=100%×(Mean RLU of the Assay Sample−Mean RLU of the Blank Control)/(Mean MAX Control Ligand−Mean RLU of the Blank Control).

[4] = Metabolite identification after incubation in human liver microsomes with NADPH; type: in vitro ADME; settings: 10 μM, 37° C., 1 hour
Procedure: as §1, §2
Compound 32B (10 μM) was incubated in a system containing both of human liver microsomes and NADPH at 37° C. for 60 min. 7-ethoxycoumarin (7-EC, 10 μM) was used as a positive control to evaluate the enzymatic metabolic activity in the liver microsome incubation system. The incubated sample was analyzed by LC-UV-HRMS. The structure of each metabolite was resolved and identified based on its primary and secondary mass spectrometry signals and/or comparison with a standard. The relative percentage of the UV-integrated peak area of each metabolite was given through data collected from the sample by LC-UV-HRMS, and the possible structure of the metabolite and its possible metabolic pathway in various genera of liver microsomes were inferred from the mass spectrometry information of the metabolite.

With `CC(=NOCc1ccc(OC(C)C)c(C(F)(F)F)c1)c1ccc2c(c1)CCC2N1CC(C(=O)O)C1` (single isomer, unassigned) [Compound 32B] the Metabolites detected [1] was “no other metabolite was detected”, the “Relative abundance of the original drug” value [1] was 100.00% and the EC50 [2] was 1.15 nM. For the same compound, the “Emax of agonistic activity on S1P1” value ([2]; % Effect) was “nM, 103.4%”, the EC50 [3] was over 300 nM and the Metabolites detected [4] was “no other metabolite was detected”. For the same compound, the “Relative abundance of the original drug” value [4] was 100.00%.

— patent publication US12479794B2, “Acetophenone oxime compound and application thereof” (Medshine Discovery Inc., priority 2020, dated 2025)
